Measurements: patent publication US10750729B2, “Pig for atrioventricular block model, monkey for atrioventricular block model, guinea pig for atrioventricular block model, and use thereof” (Toho University, priority 2012, dated 2020)

Experiments:
[1] = system: Guinea pigs (Hartley); assay: Test Example 3-2: electrocardiogram and aortic pressure of halothane-anesthetized guinea pigs (BAF312); assay type: in vivo; conditions: guinea pig
Experimental: Guinea pigs (Hartley, body weight: 420 g to 650 g, male, obtained from Japan SLC, Inc.) were each anesthetized by intraperitoneally administering thereto sodium thiopental (product of Mitsubishi Tanabe Pharma Corporation) at 50 mg/kg. Next, a tracheal cannula was inserted into each of the guinea pigs. While their body temperature was being maintained at 37° C. with a warming pad, the guinea pigs were allowed to inhale 100% by volume oxygen and 1% by volume vaporized halothane (product of Takeda Pharmaceutical Company Limited.) using an artificial respirator for experimental animals (SN-480-7; product of shimano Co., Ltd.). Here, the artificial respirator for experimental animals was set to a tidal volume of 10 mL/kg and a respiration rate of 60 strokes/min. Next, a cannula for drug administration was inserted to their left femoral vein. In addition, a heparinized catheter for monitoring the blood pressure was inserted to the aorta through the left femoral […]. Then, ECG standard limb II leads was continuously recorded.
Each of the guinea pigs (n=12) of Example 3 was recorded for an electrocardiogram before administration of a drug or a solvent.
BAF312 (product of Meiji Seika Pharma Co., Ltd.) was dissolved in dimethyl sulfoxide (hereinafter may be referred to as “DMSO”; product of Sigma-Aldrich Inc.) so as to have a concentration of 0.003 mg/mL.
(§1) After the evaluation of base control, the cannula for drug administration was inserted, and the above-prepared BAF312 solution was intravenously administered to each of the guinea pigs (n=4) of Example 3 for 10 min at a dose of 0.001 mg/kg. These guinea pigs were evaluated for parameters by the following evaluation methods at 5 min, 10 min, 15 min, 20 min, 30 min, 45 min or 60 min after the administration of the BAF312 solution.
BAF312 (product of Meiji Seika Pharma Co., Ltd.) was dissolved in DMSO (product of Sigma-Aldrich Inc.) so as to have a concentration of 0.03 mg/mL.
as §1, with “0.01” for “0.001”
The aortic pressure and the electrocardiogram were monitored using a polygraph system (RM-6000, product of NIHON KOHDEN Co. Ltd.) and analyzed with a full-automated analysis system in real time (WinVAS ver. 3, 1.1R03; product of Physio-Tech Co., Ltd).
Parameters of the electrocardiogram were measured three times, and the obtained values were averaged. Atrial rate was calculated from PP interval of the electrocardiogram. Ventricular rate was calculated from RR interval of the electrocardiogram.
The measurements in FIGS. 6A to 6E are expressed as mean±SE (n=4). The difference between the parameters was evaluated with one-way repeated measures analysis of variance (ANOVA). It was considered that p<0.05 is statistically significant. In FIG. 6A to 6C and FIG. 6E, “white circle,” “white square” and “white triangle” each mean absence of a significant difference relative to the value of the evaluation of base control (C), and “black circle” means presence of a significant difference relative to the value of the evaluation of base control (C).
Also, in FIG. 6D, “white circle” means absence of development of atrioventricular block or presence of development of first-degree atrioventricular block, “white triangle” means presence of development of advanced atrioventricular block, “x-mark” means presence of development of third-degree atrioventricular block (complete atrioventricular block), and #1 to 4 refer to each individual.

[2] = system: rat; conditions: cited from earlier work
[3] = high-dose 0.01 mg/kg/10 min i.v.
[4] = low-dose 0.001 mg/kg/10 min i.v.
[5] = low-dose 0.001 mg/kg/10 min i.v., from 5 min to 60 min

CCc1cc(/C(C)=N/OCc2ccc(C3CCCCC3)c(C(F)(F)F)c2)ccc1CN1CC(C(=O)O)C1 [BAF312, siponimod]
change in QRS width [1, 3]: no significant change | change in QT interval [1, 3]: no significant change | change in atrial rate [1, 3]: no significant change | change in blood pressure (MBP) [1, 3]: increase | correspondence of P wave and R wave in the electrocardiogram ([1]; high-dose 0.01 mg/kg/10 min i.v., 45 min after start): the atrium and the ventricle are contracted independently of each other at their own individual rhythms | change in PR interval ([1]; high-dose 0.01 mg/kg/10 min i.v., before development of atrioventricular block): prolonged | change in ventricular rate ([1]; high-dose 0.01 mg/kg/10 min i.v., from 10 min to 15 min): decrease | individuals that developed complete atrioventricular block ([1]; high-dose 0.01 mg/kg/10 min i.v., n=4): all of the four individuals | change in PR interval [1, 4]: prolongation of PR interval was observed | change in QRS width [1, 4]: no significant change | change in QT interval [1, 4]: no significant change | change in blood pressure (MBP) [1, 4]: increase | change in atrial rate [1, 5]: decrease | change in ventricular rate [1, 5]: decrease

CCCCCCCCCCCCC/C=C/[C@@H](O)[C@@H](N)COP(=O)(O)O [sphingosine-1-phosphate]
prolongation of PR interval [2]: not observed
